Biological target: G/T mismatch-specific thymine DNA glycosylase (Homo sapiens) (UniProt Q13569)
Test: Inhibition of TDG in human HEK293T at 10 uM by Renilla luciferase based reporter assay relative to control
Format: cell-based

Chain of G/T mismatch-specific thymine DNA glycosylase (Homo sapiens) (Q13569 whole entry): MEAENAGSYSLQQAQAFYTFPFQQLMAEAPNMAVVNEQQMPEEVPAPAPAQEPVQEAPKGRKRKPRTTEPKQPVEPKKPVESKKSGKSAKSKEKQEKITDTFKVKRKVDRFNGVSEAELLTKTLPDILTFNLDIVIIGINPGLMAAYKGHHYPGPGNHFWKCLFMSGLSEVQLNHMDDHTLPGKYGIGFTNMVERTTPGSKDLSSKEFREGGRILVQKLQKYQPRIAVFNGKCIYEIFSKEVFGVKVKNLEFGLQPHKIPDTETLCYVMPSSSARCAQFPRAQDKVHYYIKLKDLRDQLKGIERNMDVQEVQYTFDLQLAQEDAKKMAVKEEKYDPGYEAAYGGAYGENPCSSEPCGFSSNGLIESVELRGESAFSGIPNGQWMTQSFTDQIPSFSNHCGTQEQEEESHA

How did the inhibition turn out when Cc1ccc(C2CCN(CCC(=O)c3ccc4c(c3)OCCO4)C2)cc1 (stereo unspecified) was run?
The inhibition was < 25%.

Reference: ChEMBL document CHEMBL5393450, “Compounds inhibiting tdg activity” (2022)
